Test results from US9023826B2 (L'Oreal S.A., priority 2012, dated 2015).

Assay: Solubility in water, with or without hydrotropes, at room temperature
Type: physicochemical

stability of adenosine/hydrotropes solution in water on further dilution or concentration: stable | concentration of stable clear solution obtained (5% nicotinamide and 5% caffeine in water): 3 % (w/w)
SMILES: Nc1ncnc2c1ncn2[C@@H]1O[C@H](CO)[C@@H](O)[C@H]1O [Adenosine]
